ChEMBL document CHEMBL1649509, “Lon protease is essential for paradoxical survival of Escherichia coli exposed to high concentrations of quinolone” (Antimicrob Agents Chemother, 2009)
Activity calls are given as the source filed them. No cut-off for these calls is given here.

Legend:
Type in all cases: functional, organism-based
[1] = test system: Escherichia coli; test: Antibacterial activity against lon-deficient Escherichia coli KD2372 by viscometric assay
[2] = test system: Escherichia coli; test: Antibacterial activity against Escherichia coli K-12 harboring gyrA67/gyrB225 mutant gene
[3] = test system: Escherichia coli; test: Antibacterial activity against Escherichia coli K-12 harboring lon lexA3 mutant gene
[4] = test system: Escherichia coli; test: Antibacterial activity against Escherichia coli K-12 harboring lon sulA double mutant gene
[5] = test system: Escherichia coli; test: Antibacterial activity against lon-deficient Escherichia coli KD2372
[6] = test system: Escherichia coli; test: Antibacterial activity against Escherichia coli K-12 by viscometric assay

SMILES: CCn1cc(C(=O)O)c(=O)c2ccc(C)nc21
- Activity [1]: Active
- Activity [2]: Active
- Activity [3]: Active
- Activity [4]: Active
- Activity [5]: Active
- Activity [6]: inactive
